Source: PubChem BioAssay AID977606 (Broad Institute, 2014)
Calls of active or inactive are those of the source. The rule behind the calls is not given here.

What follows are compounds tested on INS-1E Gaussia luciferase insulin secretion, no glucose, luminescence (assay: insulin secretion activators without glucose, dose response, counter-screen for glucose-dependent insulin secretion activators, cell-based, INS-1E, Gaussia luciferase, luminescence, cherry-pick (AID 977606)).

Compound | AC40
CCOC(=O)c1cnc2c(Cl)c(Cl)ccc2c1NCCN1CCOCC1 | 26.5 µM
CCCCc1c(Cc2ccccc2)ncn1CCc1ccccc1OC | 9.34 µM
CNC[C@@H](Cc1ccccc1)NC[C@@H](CC1CCCCC1)NCCCc1ccccc1 | 13.1 µM
Cc1cccc(S(=O)(=O)N2CCCCN3[C@@H](CO)[C@@H](c4ccc(C#CC(C)C)cc4)[C@@H]3C2)c1 | 7.76 µM
O=C(NCc1ccccn1)c1coc(=O)c(Br)c1 | 1.59 µM
Fc1cccc(-c2ccc(C3[C@@H]4CN(Cc5ccccc5F)C[C@H]3N4)cc2)c1 (stereo partly specified) | 6.11 µM
NC(N)=N/N=C/c1ccc(N(c2ccccc2)c2ccccc2)cc1 | 4.06 µM
Cc1ccc(-c2ccc(C3[C@@H]4CN(Cc5cccc(F)c5)C[C@H]3N4)cc2)cc1 (stereo partly specified) | 2.14 µM
Cc1cccn2cc(CNS(=O)(=O)c3ccc4ccccc4c3)nc12 | 2.91 µM
COC(=O)C1=C(C)N(Cc2cccc(C(F)(F)F)c2)C(=NCc2ccc(OC)cc2)NC1c1cccc(F)c1 (stereo unspecified) | 3.75 µM
CC(C)Sc1nc2c(c(=O)[nH]c(=O)n2C)n1Cc1ccc(Cl)cc1 | 14 µM
NC(N)=N/N=C/c1ccc(OCc2ccccc2Cl)cc1 | 12.3 µM
CC(=O)c1nn(-c2ccc(Br)cc2)cc1C(=O)c1ccccc1 | 22.1 µM
NC1=NC[C@H](c2ccccc2)N1CCCCC1CCCCC1 | 17.4 µM
Cc1nn(-c2ccccc2)c2nc(C(F)F)cc(C(F)F)c12 | 30.4 µM
COc1cccc(CN2C[C@@H]3N[C@H](C2)C3c2ccc(-c3ccccc3OC)cc2)c1 (stereo partly specified) | 7.67 µM
COc1ccc(S(=O)(=O)Nc2ccccc2OC)cc1N=Nc1c(O)[nH]c(=S)[nH]c1=O | 12.6 µM
Cc1ccc2nc(-c3ccc(NC(=O)COC(=O)c4ccco4)cc3)sc2c1 | 3.8 µM
Cc1cccc(-c2ccc(C3[C@@H]4CN(C(=O)Nc5ccc(C(F)(F)F)cc5)C[C@H]3N4)cc2)c1 (stereo partly specified) | 1.7 µM
CN(C)Cc1ccccc1Sc1ccc2c(c1)CCCC2 | 13 µM
CN(C)c1nc(=NCc2cccs2)ss1 | 1.19 µM
CC(C)(C)S(=O)N1Cc2cc(C(=O)Nc3ccc(-c4ccccc4)cc3)nc(-c3cccc(-c4cccc(F)c4)c3)c2[C@@H]1CCO (stereo partly specified) | 13.4 µM
CC(C)Cn1nc(-c2ccccc2)c2ccccc2c1=O | 8.13 µM

Compound | AC40
COc1ccc(C#Cc2ccc([C@@H]3[C@H](CO)N4CCCCN(Cc5ccccc5F)C[C@@H]34)cc2)cc1 | 9.33 µM
CC(C)C[C@H](NC(=O)c1[nH]cnc1C(=O)N[C@@H](C)c1ccccc1)C(=O)OC(C)(C)C | 20 µM
COc1cc(CNCCc2ccccc2)cc(Cl)c1OCc1ccccc1 | 7.96 µM
COc1cccc(OCc2nc3c4cnn(-c5ccccc5)c4ncn3n2)c1 | 6.42 µM
COc1cc(OC)c2c3c(c(C4CCCCC4)nc2c1)CCC3 | 7.44 µM
c1ccc(Cn2nnc3c(N4CCc5ccccc54)ncnc32)cc1 | 6.35 µM
Cc1cc(C)cc(OCCCN2CCC(C(O)(c3ccccc3)c3ccccc3)CC2)c1 | 6.87 µM
CN(C)c1ncnc2sc(-c3ccccc3)cc12 | 30.3 µM
Cc1cc(C)c2nc(N(CCCN(C)C)C(=O)c3ccc4c(c3)CCCC4)sc2c1 | 7.77 µM
C/C=C/c1ccc(C2[C@H]3CNC[C@@H]2N3Cc2cc(-c3ccccc3)on2)cc1 (stereo partly specified) | 6.73 µM
O=C(Nc1ccc(Cl)c(Cl)c1)Nc1nc(-c2ccccc2)cs1 | 4.07 µM
C=CCn1c(SCc2ccccc2)nc2c1c(=O)[nH]c(=O)n2C | 21.2 µM
O=C(N/N=C/c1ccc(O)cc1O)NC12CC3CC(CC(C3)C1)C2 | 13.3 µM
O=c1c2cc(F)ccc2sn1-c1ccccc1Cl | 1.35 µM
O=C1CC(Sc2nnc(-c3ccccc3)o2)C(=O)N1c1ccccc1 (stereo unspecified) | 9.58 µM
CCCN1Cc2cccc(C(=O)NCc3ccccc3)c2C1=O | > 35 µM (inactive)
CCCCCCC1CCC(C(=O)Nn2c(C)nc3ccccc3c2=O)CC1 (stereo unspecified) | 14.8 µM
CCOC(=O)c1c(-n2cnnn2)sc2c1CCCC2 | > 35 µM (inactive)
O=C(NC(=S)Nc1ccc(NC(=O)c2cccs2)cc1)c1cc2ccccc2o1 | 10.9 µM
COc1cc(OC)c2c(-c3ccccc3)cc(C3CCCCC3)nc2c1 | 12.1 µM
CCOc1ncccc1C(=O)NC(C)CCc1ccccc1 (stereo unspecified) | 16.2 µM
Cc1ccc(SC[C@H](C)CN2CC[C@H](C(C)(C)C)CCC2=O)cc1 | 4.93 µM
CC(=O)Nc1ccc(Nc2nc(-c3c(C)nc4ccccn34)cs2)cc1 | 4.46 µM

Compound | AC40
CC(C)NC(=O)OC[C@H]1O[C@H](C#Cc2ccc(C(C)(C)C)cc2)C=C[C@H]1O | 20.3 µM
COc1ccc(N2CCN(c3ccc(NC(=O)C4CCCCC4)cc3C#N)CC2)cc1 | 3.22 µM
O=C(Nc1nnc(-c2ccccc2SCc2ccccc2F)s1)Nc1ccccc1F | 12.8 µM
Fc1ccc(-c2ccc(C3[C@@H]4CN(Cc5ccccc5)C[C@H]3N4)cc2)cc1 (stereo partly specified) | 8.97 µM
CN1CCN(CC(O)COC(c2ccc(Cl)cc2)c2ccc(Cl)cc2)CC1 (stereo unspecified) | 13.3 µM
Cc1cc(C)c2c(C)nn(C3CCCCC3)c2n1 | > 35 µM (inactive)
CCOC(=O)c1c(NC(=O)Cn2nc(C(F)(F)F)cc2C)sc(C)c1C | 5.96 µM
COc1cc(NC(=O)c2cccc(C)c2)ccc1NC(=O)c1cc2ccccc2o1 | 2.21 µM
NC(c1csc(Nc2ccc(C(F)(F)F)cn2)n1)C1CCCCC1 (stereo unspecified) | 5.02 µM
NC1=NC[C@H](CC2CCCCC2)N1CCc1cc(C(F)(F)F)cc(C(F)(F)F)c1 | 9.8 µM
CN(C)S(=O)(=O)c1cccc(-n2sc3ccccc3c2=O)c1 | 2.58 µM
N#Cc1nccnc1S(=O)(=O)c1cccs1 | 0.355 µM
CCC(C)c1ccccc1OCCCN(C)Cc1ccccc1 (stereo unspecified) | 9.93 µM
O=C1N/C(=N\N=C\c2cccs2)SC1Cc1cccc(Cl)c1 (stereo unspecified) | 5.93 µM
CC(=O)N(/N=C/c1cccc(C)c1)c1nc(-c2ccc(Br)cc2)cs1 | 2.15 µM
Cc1ccc(C(=O)c2sc3nc4c(cc3c2N)CCC4)cc1 | 11.3 µM
CC1CN(Cc2ccccc2)C(=S)NC1=O (stereo unspecified) | 28.6 µM
CCC(=O)Nc1sc(Cc2ccc3c(c2)OCO3)c(C)c1C(N)=O | 7.01 µM
C[C@@H]1CN([C@H](C)CO)S(=O)(=O)c2ccc(-c3ccc(F)cc3)cc2O[C@H]1CN(C)Cc1cccc(F)c1 | 17.7 µM
COc1nc(-c2ccc(Cl)cc2)ccc1-c1noc(-c2ccco2)n1 | 16 µM
Clc1ccc(/C=N/NC2=Nc3cccc4cccc2c34)cc1 | 2.88 µM
CCOC(=O)c1[nH]c2cc(OC)c(OC)cc2c1NC(=O)c1ccc2c(c1)OCO2 | 15.6 µM
COc1cc2ccccc2cc1C(=O)Nc1ccc2oc(=O)ccc2c1 | 9.12 µM

Compound | AC40
CCSc1ccc2nnc(-c3ccc(F)cc3)n2n1 | 17.9 µM
Cc1ccc(-n2cc(CNCCCn3ccnc3C)c(-c3ccc(F)cc3)n2)cc1 | 30.7 µM
OC(c1ccccc1)(c1nc(-c2cccc(C(F)(F)F)c2)cs1)C(F)(F)F (stereo unspecified) | 10.1 µM
CCCc1cc(-c2nc(-c3ccc(C)cc3)cs2)ccn1 | 7.92 µM
Cc1cccc(Cn2ccc(-c3ccc(Cl)cc3)c(C#N)c2=O)c1 | 3.46 µM
CC(C)(C)c1ccc(OCC(=O)Nc2ccc(-c3nc4cccnc4o3)cc2)cc1 | 7.74 µM
COCCOc1ccc(C(F)(F)F)cc1NC(=O)c1ccccc1F | 7.89 µM
CCN(Cc1ccccc1)S(=O)(=O)c1ccc(C(=O)Nc2nnc(C)o2)cc1 | 0.0558 µM
Cc1ccc(NC(=O)c2cc(-c3ccccc3O)n[nH]2)cc1C | > 35 µM (inactive)
CC(C)CC(NC(=O)c1ccc(Cl)cc1)C(=O)OCC(=O)c1ccc2c(c1)NC(=O)CO2 (stereo unspecified) | 2.04 µM
NC(c1csc(NC(=O)Nc2cccc(C(F)(F)F)c2)n1)C1CCCCC1 (stereo unspecified) | 6.68 µM
O=C(Nc1ccc(C(F)(F)F)cc1)N1C[C@@H]2N[C@H](C1)C2c1ccc(-c2ccccc2)cc1 (stereo partly specified) | 8.46 µM
O=C(CC1c2ccccc2Oc2ccccc21)Nc1ccccc1C(F)(F)F | 5.33 µM
CCCCCCCOC(=O)c1nc(Cl)c(Cl)c(N)c1Cl | 8.89 µM
COc1ccc(/C=N/NC(=O)c2ccc(COc3ccccc3Cl)o2)c(OC)c1C | 4.97 µM
CC1CCC(C(C)C)C(OCC(O)CNC(C)c2ccccc2)C1 (stereo unspecified) | 11.8 µM
CC(C)CSc1nc2c(c(=O)[nH]c(=O)n2C)n1CCc1ccccc1 | 9.29 µM
C=CCNC(=S)N/N=C/c1ccc(-c2cc(Cl)ccc2Cl)o1 | 4.34 µM
COc1ccc(C[C@H]2CN3C(=NC[C@@H]3Cc3ccccc3)N2CCNC(=O)CCC2CCCCC2)cc1 | 13.5 µM
NS(=O)(=O)c1ccc(NC(=O)COC(=O)c2cn(-c3ccccc3)nc2-c2ccc(F)cc2)cc1 | 4.09 µM
CCOc1cccc(-c2csc(C3COc4ccccc4O3)n2)c1 (stereo unspecified) | 5.47 µM
O=c1c2ccccc2sn1-c1ccccc1F | 1.22 µM
CCOc1ccc2ccc(OCC)c(/C=N/n3cnnc3)c2c1 | 34.8 µM

Compound | AC40
O=C(N/N=C/c1ccco1)c1cc(-c2ccc3ccccc3c2)n[nH]1 | 3.97 µM
CC(=O)Nc1sc(N/N=C\c2cccc(Cl)c2)nc1-c1cccs1 | 4.69 µM
Cc1ccc2oc(-c3cccc(NC(=O)Cc4cccs4)c3)nc2c1 | 2.42 µM
N#Cc1sc2nc(N3CCCCC3)c3c(c2c1N)CCCC3 | 21.2 µM
CCCCc1c(-c2ccccc2OC)ncn1C(C)c1ccc(Cl)cc1 (stereo unspecified) | 7.72 µM
FC(F)(F)c1cc(CCN2CCNC[C@H]2Cc2cccc3ccccc23)cc(C(F)(F)F)c1 | 3.69 µM
COc1ccc2c(c1)C(=NNC(=O)c1ccccn1)c1cc(OC)ccc1-2 | 2.66 µM
NC(CCc1ccccc1)c1csc(Nc2ccc(C(F)(F)F)cn2)n1 (stereo unspecified) | 6.01 µM
CCc1c(C)sc(NC(=O)c2cc(-c3ccc(OC)c(OC)c3)on2)c1C#N | 6.43 µM
COc1ccc(/C=N/N(C(C)=O)c2nc(-c3ccc(C)cc3)cs2)cc1 | 1.98 µM
OC(CNCCc1ccc(C(F)(F)F)cc1)COc1cccc2ccccc12 (stereo unspecified) | 4.92 µM
CCCCc1c(-c2cccc(OC)c2)ncn1CCc1ccccc1OC | 7.6 µM
Cc1ccccc1-c1ccc(C2[C@@H]3CN(S(=O)(=O)c4ccccc4C)C[C@H]2N3)cc1 (stereo partly specified) | 5.8 µM
CC(=O)N(C1CC(C)C(C#N)(C#N)C1(C#N)C#N)N(C)C (stereo unspecified) | 0.795 µM
COC(=O)c1sccc1NC(=O)COc1ccc(Cl)cc1Cl | 6.02 µM
Cc1ccc(S(=O)(=O)N2C[C@@H]3N[C@H](C2)C3c2ccc(/C=C/c3ccccc3)cc2)cc1 (stereo partly specified) | 4.56 µM
Cc1ccc(F)cc1-c1nc(NC(C)C)nc2cc(-c3ccccc3)sc12 | 13.6 µM
OC(c1ccccc1)(c1ccccc1)C1CCN(CCCOc2ccc3c(c2)CCCC3)CC1 | 3.37 µM
Cc1nn(Cc2ccc(Cl)cc2Cl)c(Cl)c1C(=O)Nc1ccc(OC(F)F)cc1 | 5.64 µM
